Data published in patent publication US8975259B2, “Compositions and methods for inhibiting G protein signaling” (University of Rochester, priority 2007, dated 2015).

Columns and labels:
PLCβ3 = test: Gβ1γ2-dependent activation of purified PLCβ3; assay type: biochemical; conditions: Table 4; read-out: PLC β3 IC50
Experimental: (§1) Purified PLCβ2 (0.25 ng) was assayed in the presence (▴) or absence (▪) of 100 nM purified Gβ1γ2. […] Assays contained 10 ng of purified p101/p110 PI3Kγ heterodimer with or without 100 nM purified Gβ1γ2. Left panel: (▴) 100 nM Gβ1γ2 or (▪) no βγ. […] M119 or M201 and 25 nM purified GRK2 were added simultaneously to 250 nM biotinylated Gβ1γ2 (bGβ1γ2) immobilized on streptavidin agarose. GRK2 was detected with antibody to GRK2. Data are representative (mean ±SEM, except D) repeated at least three times each. […] 30 nM bGβ1γ2 was incubated with either 30 nM PLCβ2 or PLCβ3 in the presence or absence of M119 or M201 for 16 h at 4° C. before precipitation with avidin agarose and detection with PLCβ2,or Gβ antibodies. […] Same as 4E with PLCβ3.
The ability of NSC119910 analogs to selectively modulate activation PLC-β2 and -β3 was analyzed. In this assay, PLC-β2 and PLC-β3 were purified and PLC enzymatic activity was measured in the presence or absence of purified βy and in the presence or absence of analog.
(§2) Nevertheless, M119 and M201 were tested in in vitro reconstitution assays of Gβγ-dependent activation of PLCβ2, PLCβ3 and PI3Kγ and binding to GRK2. […] These are only two of multiple diverse compounds identified, indicating potential for multiple modes of Gβγ-dependent target modulation by these small molecules.

PI3Kγ = test: Gβ1γ2-dependent activation of purified p101/p110 PI3Kγ; assay type: biochemical; conditions: Table 5; read-out: PI3Kγ IC50
Experimental: as §1, §2

| SMILES | IC50 (PLCβ3) [µM] | IC50 (PI3Kγ) [µM] |
| --- | --- | --- |
| Nc1c(S(=O)(=O)O)cc(Nc2cccc(S(N)(=O)=O)c2)c2c1C(=O)c1ccccc1C2=O [drawing 58] | 58 | – |
| Nc1ccc(Nc2cc(S(=O)(=O)O)c(N)c3c2C(=O)c2ccccc2C3=O)cc1 [drawing 59] | 12 | – |
| Nc1cccc(Nc2cc(S(=O)(=O)O)c(N)c3c2C(=O)c2ccccc2C3=O)c1 [drawing 60] | 15 | – |

The remaining lines, values ahead:

| IC50 (PLCβ3) [µM] | IC50 (PI3Kγ) [µM] | SMILES |
| --- | --- | --- |
| 62 | – | Nc1ccc(-c2ccc(Nc3cc(S(=O)(=O)O)c(N)c4c3C(=O)c3ccccc3C4=O)cc2)c(S(=O)(=O)O)c1 [drawing 61] |
| – | 10 | Nc1c(S(=O)(=O)O)cc(Nc2cccc(S(N)(=O)=O)c2)c2c1C(=O)c1ccccc1C2=O [drawing 62] |
| – | 2.5 | Nc1ccc(Nc2cc(S(=O)(=O)O)c(N)c3c2C(=O)c2ccccc2C3=O)cc1 [drawing 63] |
| – | 6 | Nc1cccc(Nc2cc(S(=O)(=O)O)c(N)c3c2C(=O)c2ccccc2C3=O)c1 [drawing 64] |
